Key:
[1] = tested on: B16F10 aggressive murine melanoma tumor; assay: In vivo B16F10 melanoma tumor model in C57BL6/J mice; details: free Dox 2.5 mg/kg, after four IP injections, compared to SPB(1,1)NPs treated mice
Procedure: In vivo tumor model was carried out using male C57BL6/J mice (8-9 weeks old). Approximately, 2.5×10^5 B16F10 cells resuspended in 100 μL of sterile HBSS were subcutaneously injected to lower right abdomen of male mice. […] All the treatments were Intraperitoneally (IP) injected on alternate days over a period of 15 days. The volume of tumor was measured by using the formula (0.5×ab^2), where ‘a’ represents the longest dimension and ‘b’ represents the shortest dimension of the tumors. Also, the weight and picture of the tumors were taken after the sacrifice. […] The loss of body weight can correlate with the nonspecific side effects of Dox in normal physiological function.

[2] = tested on: E. coli; assay: Measurement of lipid peroxidation; assay type: cell-based; details: positive control; (sample O.D/Control O.D)×100
Procedure: Lipid peroxidation was measured according to standard protocol. […] 1.5 ml of 20% acetic acid (pH 3.5), 1.5 ml of 0.8% thiobarbituric acid (in 1.1% SDS) and 0.05 ml of 20% TCA were added and mixed thoroughly. The tubes were then incubated for 60 minutes at 100° C. and 5 ml of butanol was added to each tube. The tubes were then centrifuged at 4000 rpm for 15 minutes. The pink supernatant was measures at 532 nm. The % of lipid peroxidation was measured by using the following formula: % of lipid peroxidation=(sample O.D/Control O.D)×100.

[3] = tested on: Bacillus subtilis; assay: Colony forming units (CFU), Bacillus subtilis; assay type: cell-based; details: positive control 2 mg/ml, 24 hours
Procedure: (§1) Streptomycin at 2 mg/ml concentration was used as positive control. The plated were incubated for 24 hours at 37° C. The number of colonies appeared on the surface of the LB agar plates were counted. […] We previously reported the antibacterial activity of biosynthesized silver nanoparticles (Mukherjee et al. Theranostics, 2014; 4: 316-335).

[4] = tested on: E. coli; assay: Colony forming units (CFU), E. coli; assay type: cell-based; details: positive control 2 mg/ml, 24 hours
Procedure: as §1

| SMILES | body weight [1] | lipid peroxidation [2] | bacterial growth (colonies) [3] | bacterial growth (colonies) [4] |
| --- | --- | --- | --- | --- |
| COc1cccc2c1C(=O)c1c(O)c3c(c(O)c1C2=O)C[C@@](O)(C(=O)CO)C[C@@H]3O[C@H]1C[C@H](N)[C@H](O)[C@H](C)O1 [Dox, doxorubicin] | significant loss of bodyweight | – | – | – |
| [H]/N=C(/N)N[C@H]1[C@H](O)[C@@H](O)[C@H](O[C@@H]2O[C@@H](C)[C@](O)(C=O)[C@H]2O[C@@H]2O[C@@H](CO)[C@H](O)[C@@H](O)[C@@H]2NC)[C@@H](N/C(N)=N\[H])[C@@H]1O [streptomycin] | – | 60% | bacterial colonies were observed | bacterial colonies were observed |
